By pIC50 is commonly meant −log10 of the IC50, conventionally taken in molar units. Low values mean a large IC50, high ones a small IC50. For orientation: Tmax means the time at which the peak concentration occurs. A word on the half-life: it is the time in which the quantity being followed falls by half. A lower half-life goes with rapid decline. The term Cmax denotes the peak of the concentration-time curve.

Structures are written as SMILES. pIC50: −log10 of the molar value.

The source of these data is ChEMBL document CHEMBL3603836, “Hybrid pyrimidine alkynyls inhibit the clinically resistance related Bcr-Abl(T315I) mutant” (Bioorg Med Chem Lett, 2015).

The subject of one data set is K562. The experiment in a line: cells. The note with it: Homo sapiens, K562, 72 h.
The next data set in a line: cells. The note with it: Mus musculus, BaF3, 72 h.
Data set [1] can be described thus: Antiproliferative activity against mouse BA/F3 cells expressing wild type Bcr-Abl after 72 hrs by CCK-8 assay. Type of data set: functional, cell-based. The note with it: BaF3, 72 h.
Data set [2] has as its target Bcr/Abl fusion protein (Homo sapiens, UniProt P00519, T315I). The data set is classed as protein assay.
For data set [3], the target named is Bcr/Abl fusion protein (Homo sapiens, UniProt P00519). Type of data set: protein assay.
Description: Inhibition of wild type Bcr-Abl (unknown origin) using Tyr2 peptide substrate after 2 hrs by FRET-based Z'-lyte assay
The nature of data set [4]: Tmax in Sprague-Dawley rat at 10 mg/kg, iv. Type of data set: ADME, organism-based. The note with it: in vivo.
A short description of data set [5]: Half life in Sprague-Dawley rat at 25 mg/kg, po. Particulars: in vivo. The data set is classed as ADME, organism-based.
Data set [6] concerns Rattus norvegicus. Kind of data set: AUC (0 to infinity) in Sprague-Dawley rat at 25 mg/kg, po. Type of data set: ADME, organism-based. Details: dose 25 mg/kg, time infinity, route oral. Particulars: in vivo.
The subject of data set [7] is Rattus norvegicus. Kind of data set: AUC (0 to infinity) in Sprague-Dawley rat at 10 mg/kg, iv. Type of data set: ADME, organism-based. Details: dose 10 mg/kg, time infinity, route intravenous. The note with it: in vivo.
Data set [8] can be described thus: Tmax in Sprague-Dawley rat at 25 mg/kg, po. The note with it: in vivo. Type of data set: ADME, organism-based.
Data set [9] in a line: Cmax in Sprague-Dawley rat at 25 mg/kg, po. The data set is classed as ADME, organism-based. The arrangement: dose 25 mg/kg, route oral. The note with it: in vivo.
Data set [10] in a line: Cmax in Sprague-Dawley rat at 10 mg/kg, iv. Type of data set: ADME, organism-based. Details: dose 10 mg/kg, route intravenous. The note with it: in vivo.
Data set [11] in a line: Half life in Sprague-Dawley rat at 10 mg/kg, iv. The data set is classed as ADME, organism-based. Particulars: in vivo.

Description for K562: Antiproliferative activity against human K562 cells expressing wild type Bcr-Abl after 72 hrs by CCK-8 assay

As for `Cc1cn(-c2cc(NC(=O)c3ccc(C)c(C#Cc4cnc(NC(C)C)nc4)c3)cc(C(F)(F)F)c2)cn1`, the pIC50 in the data set with K562 was 7.57; in “cells”, 5.94; in [1], 7.64; against Bcr/Abl fusion protein [2], 6.73; against Bcr/Abl fusion protein [3], 6.90.

Regarding `Cc1cn(-c2cc(NC(=O)c3ccc(C)c(C#Cc4cnc(NCCO)nc4)c3)cc(C(F)(F)F)c2)cn1`, the pIC50 in the data set on K562 is 7.89; in the data set “cells” it was 5.97; in [1], 7.77; against Bcr/Abl fusion protein [2], 7.72; on Bcr/Abl fusion protein [3], 7.74.

For `Cc1ccc(NC(=O)c2ccc(CN3CCN(C)CC3)cc2)cc1Nc1nccc(-c2cccnc2)n1` [IMATINIB], the negative-log IC50 (pIC50) was 6.55 in the data set with K562 and below 6.00 in “cells”.

In the case of `Cc1cn(-c2cc(NC(=O)c3ccc(C)c(C#Cc4cnc(N)nc4)c3)cc(C(F)(F)F)c2)cn1`, the negative-log IC50 (pIC50) was 9.00 in the data set on K562; 7.11 in the data set “cells”; 8.70 in [1]; 8.15 against Bcr/Abl fusion protein [2]; 8.10 against Bcr/Abl fusion protein [3].

On to `Cc1cn(-c2cc(NC(=O)c3ccc(C)c(C#Cc4cnc(N5CCCC5)nc4)c3)cc(C(F)(F)F)c2)cn1`, for which the pIC50 in the data set with K562 is below 6.03; in “cells”, below 5.00; in data set [1], below 6.00; at Bcr/Abl fusion protein [2], below 6.00; at Bcr/Abl fusion protein [3] it was below 6.00.

With `CNc1ncc(C#Cc2cc(C(=O)Nc3cc(-n4cnc(C)c4)cc(C(F)(F)F)c3)ccc2C)cn1`, the time to peak (Tmax) in data set [4] stood at 1.98 min; in data set [8] it was 2 h. Also, the pIC50 in the data set with K562 is 8.15; in “cells”, 7.07; in [1], 8.52; on Bcr/Abl fusion protein [2], 8.22; at Bcr/Abl fusion protein [3], 8.00. Besides, the half-life in [5] was 7.8 h; in data set [11], 7.5 h. Besides, the results for the AUC with Rattus norvegicus [6] and with Rattus norvegicus [7] were 48574 µg/L/h and 35809 µg/L/h, respectively. The Cmax in data set [9] turned out to be 3090 ng/mL; in data set [10], 11000 ng/mL.

`Cc1cn(-c2cc(NC(=O)c3ccc(C)c(C#Cc4cnc(Nc5ccccc5)nc4)c3)cc(C(F)(F)F)c2)cn1`: the pIC50 was 6.95 in the data set with K562; 5.62 in “cells”; 6.68 in [1]; 6.79 on Bcr/Abl fusion protein [2]; 6.62 on Bcr/Abl fusion protein [3].

On to `Cc1nc(Nc2ncc(C(=O)Nc3c(C)cccc3Cl)s2)cc(N2CCN(CCO)CC2)n1` [DASATINIB], for which the values for the pIC50 with K562 and in the data set “cells” were 9.00 and below 6.00, respectively.

For the molecule `Cc1cn(-c2cc(NC(=O)c3ccc(C)c(C#Cc4cnc(N5CCOCC5)nc4)c3)cc(C(F)(F)F)c2)cn1`, the negative logarithm of the IC50 (pIC50) in the data set on K562 was 6.45; in “cells”, 5.07; in data set [1] it was 6.53; against Bcr/Abl fusion protein [2], below 6.00; against Bcr/Abl fusion protein [3] it was 6.52.

On to `Cc1cn(-c2cc(NC(=O)c3ccc(C)c(C#Cc4cnc(NC5CCCCC5)nc4)c3)cc(C(F)(F)F)c2)cn1`, for which the pIC50 was 7.52 with K562; 5.57 in the data set “cells”; 7.31 in data set [1]; 6.34 at Bcr/Abl fusion protein [2]; 7.03 against Bcr/Abl fusion protein [3].

As for `Cc1cn(-c2cc(NC(=O)c3ccc(C)c(Nc4nccc(-c5cccnc5)n4)c3)cc(C(F)(F)F)c2)cn1` [NILOTINIB], the pIC50 in the data set on K562 is 7.66.

For `Cc1cn(-c2cc(NC(=O)c3ccc(C)c(C#Cc4cnc(N5CCCCC5)nc4)c3)cc(C(F)(F)F)c2)cn1`, the pIC50 was 6.19 in the data set on K562; below 5.00 in the data set “cells”; 6.17 in [1]; below 6.00 against Bcr/Abl fusion protein [2]; 6.04 against Bcr/Abl fusion protein [3].

Regarding `Cc1cn(-c2cc(NC(=O)c3ccc(C)c(C#Cc4cnc(NC(C)(C)C)nc4)c3)cc(C(F)(F)F)c2)cn1`, the pIC50 is 7.64 with K562; 6.87 in the data set “cells”; 7.42 in data set [1]; 7.62 against Bcr/Abl fusion protein [2]; 7.55 against Bcr/Abl fusion protein [3].

Consider `CCNc1ncc(C#Cc2cc(C(=O)Nc3cc(-n4cnc(C)c4)cc(C(F)(F)F)c3)ccc2C)cn1`, for which the pIC50 is 8.22 in the data set with K562; 6.95 in the data set “cells”; 8.10 in data set [1]; 7.72 against Bcr/Abl fusion protein [2]; 7.52 against Bcr/Abl fusion protein [3].
